According to PubChem BioAssay AID280 (DTP/NCI, 2004):
“And” between values parts separate entries of the source, which are not always exact repeats. Equal values may be shown once. Toxic doses and inconclusive results are not listed.

Tested on: nude mice, LOX melanoma ip, survival T/C
Test: NCI In Vivo Anticancer Drug Screen. Data for tumor model Human Amelanotic Melanoma (LOX) (intraperitoneal) in NU/NU BALB/C (nude) mice
Conditions: endpoint: median survival time, schedule: Q04DX003 (ip), higher = longer survival
Procedure: The antitumor activity of compounds was measured in mice bearing transplantable tumors. Survival or tumor size were measured and the results are expressed as the measurement made in the treated group (T) divided by the measurement made in the vehicle treated control group (C). The tumor model used in this assay is Human Amelanotic Melanoma (LOX) (intraperitoneal) in NU/NU BALB/C (nude) mice

[1] = dose: 37.5 mg/kg/injection, vehicle: saline with Tween-80
[2] = dose: 75.0 mg/kg/injection, vehicle: saline with Tween-80
[3] = dose: 150.0 mg/kg/injection, vehicle: saline with Tween-80
[4] = dose: 300.0 mg/kg/injection, vehicle: saline with Tween-80
[5] = dose: 50.0 mg/kg/injection, vehicle: Klucel (hydroxypropylcellulose) (HPC)
[6] = dose: 100.0 mg/kg/injection, vehicle: Klucel (hydroxypropylcellulose) (HPC)

Structure (SMILES): COc1cc2cc(c1Cl)N(C)C(=O)C[C@H](OC(=O)[C@H](C)N(C)C(C)=O)[C@]1(C)O[C@H]1[C@H](C)[C@@H]1C[C@@](O)(NC(=O)O1)[C@H](OC)C=C/C=C(\C)C2
- T/C (dose: 0.07 mg/kg/injection, vehicle: Klucel (hydroxypropylcellulose) (HPC)): 304 % of control
- T/C (dose: 0.12 mg/kg/injection, vehicle: Klucel (hydroxypropylcellulose) (HPC)): 304 % of control
- T/C (dose: 0.2 mg/kg/injection, vehicle: Klucel (hydroxypropylcellulose) (HPC)): 304 % of control and 323 % of control
- T/C (dose: 0.33 mg/kg/injection, vehicle: Klucel (hydroxypropylcellulose) (HPC)): 304 % of control
- T/C (dose: 0.4 mg/kg/injection, vehicle: Klucel (hydroxypropylcellulose) (HPC)): 95 % of control
- T/C (dose: 0.56 mg/kg/injection, vehicle: Klucel (hydroxypropylcellulose) (HPC)): 304 % of control

Structure (SMILES): CNC(=O)OCc1nc(SC)n(C)c1COC(=O)NC
- T/C (dose: 51.2 mg/kg/injection, vehicle: water): 179 % of control
- T/C (dose: 57.5 mg/kg/injection, vehicle: saline): 156 % of control
- T/C (dose: 76.7 mg/kg/injection, vehicle: water): 229 % of control
- T/C (dose: 115.0 mg/kg/injection, vehicle: saline): 234 % of control
- T/C (dose: 115.0 mg/kg/injection, vehicle: water): 354 % of control

Structure (SMILES): COc1ccc(S(=O)(=O)N=N/C=C2\C=CC=CN2O)cc1OC
- T/C (dose: 9.38 mg/kg/injection, vehicle: saline with Tween-80): 116 % of control
- T/C (dose: 18.75 mg/kg/injection, vehicle: saline with Tween-80): 101 % of control
- T/C [1]: 94 % of control
- T/C (dose: 54.0 mg/kg/injection, vehicle: saline with Tween-80): 124 % of control
- T/C [2]: 105 % of control
- T/C [3]: 173 % of control
- T/C (dose: 250.0 mg/kg/injection, vehicle: saline with Tween-80): 165 % of control
- T/C (dose: 416.67 mg/kg/injection, vehicle: saline with Tween-80): 156 % of control

Structure (SMILES): CO[C@@]12[C@@H]3N[C@@H]3CN1C1=C(C(=O)C(NCC3CCCO3)=C(C)C1=O)[C@@H]2COC(N)=O (some centres not stated)
- T/C (dose: 12.5 mg/kg/injection, vehicle: distilled water + Tween-80): 154 % of control
- T/C (dose: 25.0 mg/kg/injection, vehicle: distilled water + Tween-80): 160 % of control
- T/C (dose: 50.0 mg/kg/injection, vehicle: distilled water + Tween-80): 215 % of control

Structure (SMILES): CC1C(c2ccccc2)OC(N2CCOCC2)C(C)(C)CN1C (configuration not stated)
- T/C [2]: 105 % of control
- T/C [3]: 93 % of control
- T/C [4]: 90 % of control

Structure (SMILES): CCC1(O)C(=O)OCc2c1cc1n(c2=O)Cc2cc3cc(N)ccc3nc2-1 (configuration not stated)
- T/C (dose: 3.75 mg/kg/injection, vehicle: suspension in saline): 324 % of control
- T/C (dose: 4.0 mg/kg/injection, vehicle: saline): 189 % of control
- T/C (dose: 7.0 mg/kg/injection, vehicle: saline): 355 % of control
- T/C (dose: 7.5 mg/kg/injection, vehicle: suspension in saline): 324 % of control
- T/C (dose: 12.0 mg/kg/injection, vehicle: saline): 355 % of control
- T/C (dose: 15.0 mg/kg/injection, vehicle: suspension in saline): 324 % of control
- T/C (dose: 20.0 mg/kg/injection, vehicle: saline): 355 % of control
- T/C (dose: 33.0 mg/kg/injection, vehicle: saline): 355 % of control

Structure (SMILES): CCC1OC(OC)C=CC1=O (configuration not stated)
- T/C (dose: 25.0 mg/kg/injection, vehicle: suspension in saline): 96 % of control
- T/C (dose: 50.0 mg/kg/injection, vehicle: suspension in saline): 104 % of control
- T/C (dose: 100.0 mg/kg/injection, vehicle: suspension in saline): 113 % of control

Structure (SMILES): OCC(O)C(O)C(O)C(O)CO (configuration not stated)
- T/C (dose: 75.0 mg/kg/injection, vehicle: saline): 97 % of control
- T/C (dose: 150.0 mg/kg/injection, vehicle: saline): 102 % of control
- T/C (dose: 300.0 mg/kg/injection, vehicle: saline): 97 % of control
- T/C (dose: 600.0 mg/kg/injection, vehicle: saline): 106 % of control
- T/C (dose: 1200.0 mg/kg/injection, vehicle: saline): 104 % of control

Structure (SMILES): CN(C)[C@@H]1C(=O)C(C(=O)NCN2CCN(C(=N)N=C(N)N)CC2)=C(O)[C@@]2(O)C(=O)C3=C(O)c4c(O)cccc4[C@@](C)(O)[C@H]3C[C@@H]12
- T/C (dose: 1.25 mg/kg/injection, vehicle: suspension in saline): 114 % of control
- T/C (dose: 2.5 mg/kg/injection, vehicle: suspension in saline): 107 % of control
- T/C (dose: 3.6 mg/kg/injection, vehicle: suspension in saline): 112 % of control
- T/C (dose: 5.0 mg/kg/injection, vehicle: suspension in saline): 114 % of control
- T/C (dose: 6.0 mg/kg/injection, vehicle: suspension in saline): 105 % of control
- T/C (dose: 10.0 mg/kg/injection, vehicle: suspension in saline): 103 % of control and 100 % of control
- T/C (dose: 17.0 mg/kg/injection, vehicle: suspension in saline): 112 % of control
- T/C (dose: 28.0 mg/kg/injection, vehicle: suspension in saline): 89 % of control

Structure (SMILES): COc1cccc(Sc2ccc([N+](=O)[O-])c3no[n+]([O-])c23)c1
- T/C [1]: 101 % of control
- T/C [2]: 120 % of control
- T/C [3]: 89 % of control
- T/C [4]: 101 % of control

Structure (SMILES): COc1ccc(/C=C\c2cc(OC)c(OC)c(OC)c2)c(O)c1O
- T/C (dose: 6.25 mg/kg/injection, vehicle: saline + Tween-80 + alcohol): 97 % of control
- T/C (dose: 12.5 mg/kg/injection, vehicle: saline + Tween-80 + alcohol): 110 % of control
- T/C (dose: 25.0 mg/kg/injection, vehicle: saline + Tween-80 + alcohol): 124 % of control

Structure (SMILES): O=C(O)Cc1cccc2c(=O)cc(-c3ccccc3)oc12
- T/C (dose: 25.0 mg/kg/injection, vehicle: sodium bicarbonate): 108 % of control
- T/C (dose: 50.0 mg/kg/injection, vehicle: sodium bicarbonate): 119 % of control

Structure (SMILES): CCOC(=O)/C=C/C(=O)N1CCN(C(=O)/C=C/C(=O)OCC)C(C)C1 (configuration not stated)
- T/C (dose: 75.0 mg/kg/injection, vehicle: Klucel (hydroxypropylcellulose) (HPC)): 117 % of control
- T/C (dose: 150.0 mg/kg/injection, vehicle: Klucel (hydroxypropylcellulose) (HPC)): 109 % of control
- T/C (dose: 300.0 mg/kg/injection, vehicle: Klucel (hydroxypropylcellulose) (HPC)): 108 % of control
- T/C (dose: 600.0 mg/kg/injection, vehicle: Klucel (hydroxypropylcellulose) (HPC)): 116 % of control

Structure (SMILES): COC(=O)C1(F)C(=O)NC(=O)NC1OC (configuration not stated)
- T/C [5]: 110 % of control
- T/C [6]: 98 % of control
- T/C (dose: 200.0 mg/kg/injection, vehicle: Klucel (hydroxypropylcellulose) (HPC)): 92 % of control
- T/C (dose: 400.0 mg/kg/injection, vehicle: Klucel (hydroxypropylcellulose) (HPC)): 104 % of control
- T/C (dose: 800.0 mg/kg/injection, vehicle: Klucel (hydroxypropylcellulose) (HPC)): 94 % of control

Structure (SMILES): S=C(NCNC(=S)c1ccncc1)c1ccncc1
- T/C [2]: 104 % of control
- T/C [3]: 103 % of control
- T/C [4]: 106 % of control
- T/C (dose: 600.0 mg/kg/injection, vehicle: saline with Tween-80): 87 % of control

Structure (SMILES): O=C1C2=C(C(=O)c3cnccc31)C1C=CC2CC1 (configuration not stated)
- T/C (dose: 25.0 mg/kg/injection, vehicle: DMSO): 93 % of control

Structure (SMILES): O=C(/C=C/c1cccnc1)/C=C/c1cccnc1
- T/C (dose: 6.25 mg/kg/injection, vehicle: Klucel (hydroxypropylcellulose) (HPC)): 104 % of control
- T/C (dose: 12.5 mg/kg/injection, vehicle: Klucel (hydroxypropylcellulose) (HPC)): 105 % of control
- T/C (dose: 25.0 mg/kg/injection, vehicle: Klucel (hydroxypropylcellulose) (HPC)): 111 % of control
- T/C [5]: 116 % of control
- T/C [6]: 88 % of control
